Our source for the melting point values is patent US6518260B1, “(α-aminophosphino) peptide derivatives, method for making same and therapeutic applications thereof” (Institut National de la Sante et de la Recherche Medicale …, priority 1996, dated 2003).

Each structure is given as a SMILES string.

Usually melting point stands for the temperature, or range, at which the solid turns liquid. In turn, `CC(N)P(=O)(O)CC(Cc1ccc(-c2ccccc2)cc1)C(=O)N[C@@H](C)C(=O)OCc1ccccc1.O=C(O)C(F)(F)F` (stereo partly shown) returned a melting point of 205 °C.
As for `Br.NC(Cc1ccccc1)P(=O)(O)CC(Cc1ccccc1)C(=O)N[C@H](CC(=O)O)Cc1ccccc1` (stereo partly shown), the figure is 240 °C.
Compound `NC(Cc1ccccc1)P(=O)(CC(Cc1ccccc1)C(=O)N[C@@H](Cc1ccccc1)C(=O)OCc1ccccc1)OCc1ccccc1.O=CO` (stereo partly shown) returned a melting point of 192 °C.
`NC(Cc1ccccc1)P(=O)(O)CC(Cc1ccccc1)C(=O)N[C@@H](Cc1ccccc1)C(=O)OCc1ccccc1.O=C(O)C(F)(F)F` (stereo partly shown): the melting point is 210 °C.
